pIC50: −log10 of the molar value.
Biological target: T1, human CTPS1 (Homo sapiens, UniProt P17812)
T1 construct: FLAG (with GG linker); His8 (with GG linker); purchased Proteros biostructures GmbH
T1 sequence (P17812 1-591): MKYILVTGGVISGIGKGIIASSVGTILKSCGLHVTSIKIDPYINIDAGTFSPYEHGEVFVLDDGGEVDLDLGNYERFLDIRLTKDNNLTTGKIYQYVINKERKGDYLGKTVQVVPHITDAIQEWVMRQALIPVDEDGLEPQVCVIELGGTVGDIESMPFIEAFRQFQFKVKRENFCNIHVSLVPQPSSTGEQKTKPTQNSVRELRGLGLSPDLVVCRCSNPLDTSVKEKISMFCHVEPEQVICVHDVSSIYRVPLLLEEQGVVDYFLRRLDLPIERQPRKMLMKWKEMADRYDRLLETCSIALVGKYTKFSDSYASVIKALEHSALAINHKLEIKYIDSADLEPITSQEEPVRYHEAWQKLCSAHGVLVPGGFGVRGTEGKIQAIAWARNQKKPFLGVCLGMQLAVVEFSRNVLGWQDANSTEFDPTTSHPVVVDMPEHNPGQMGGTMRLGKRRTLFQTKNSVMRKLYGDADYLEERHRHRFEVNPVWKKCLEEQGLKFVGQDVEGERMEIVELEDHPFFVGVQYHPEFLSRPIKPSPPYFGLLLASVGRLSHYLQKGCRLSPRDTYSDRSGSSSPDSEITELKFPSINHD
Assay: Human CTPS1 enzyme inhibition, ADP-Glo Max assay
Assay type: biochemical
Settings: ADP-Glo Max assay; Table 10; read-out: Human CTPS1 Enzyme Inhibition, IC50 grouped by potency range (CTPS1)
Summary of the method: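 Read-out is ADP-Glo Max luminescence: residual ATP depleted (60 min), then produced ADP converted back to ATP for luciferase detection (60 min). Beforehand, protein and compound were mixed for 10 min at 25 °C in Tris buffer pH 8.0 with MgCl2, Tween-20 and 2 mM L-cysteine. Results expressed as percentage inhibition per concentration.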

| Compound | pIC50 |
| --- | --- |
| Cc1cncc(-c2ccc(NC(=O)C(C)(C)c3csc(NS(=O)(=O)C4CC4)n3)nc2)c1 [T249, 2-(2-(cyclopropanesulfonamido)thiazol-4-yl)-2-methyl-N-(5′-methyl-[3,3′-bipyridin]-6-yl)propanamide] | > 7.00 |
| CC(C)(C(=O)Nc1ccc(-c2cncc(S(C)(=O)=O)c2)cc1)c1csc(NS(=O)(=O)C2CC2)n1 [T49, 2-(2-(cyclopropanesulfonamido)thiazol-4-yl)-2-methyl-N-(4-(5-(methylsulfonyl)pyridin-3-yl)phenyl)propanamide] | 6.00 to 7.00 |
| CCOc1cncc(-c2ccc(NC(=O)C(C)(C)c3csc(NS(C)(=O)=O)n3)c(F)c2)n1 [T431, N-(4-(6-ethoxypyrazin-2-yl)-2-fluorophenyl)-2-methyl-2-(2-(methylsulfonamido)thiazol-4-yl)propanamide] | > 7.00 |
| CC(C)(C(=O)Nc1ccc(-c2cncc(C#N)n2)cc1)c1csc(NS(=O)(=O)C2CC2)n1 [T154, N-(4-(6-cyanopyrazin-2-yl)phenyl)-2-(2-(cyclopropanesulfonamido)thiazol-4-yl)-2-methylpropanamide] | 6.00 to 7.00 |
| CC(C)(C(=O)Nc1ccc(-c2cccc(Cl)n2)cc1)c1csc(NS(=O)(=O)C2CC2)n1 [T268, N-(4-(6-chloropyridin-2-yl)phenyl)-2-(2-(cyclopropanesulfonamido)thiazol-4-yl)-2-methylpropanamide] | 6.00 to 7.00 |
| CCOc1cncc(-c2ccc(NC(=O)Cc3csc(NS(=O)(=O)C4CC4)n3)cc2)n1 [T424, 2-(2-(cyclopropanesulfonamido)thiazol-4-yl)-N-(4-(6-ethoxypyrazin-2-yl)phenyl)acetamide] | > 7.00 |
| CC(C)(C(=O)Nc1ccc(-c2cncc(N3CCOCC3)n2)cc1)c1csc(NS(=O)(=O)C2CC2)n1 [T53, 2-(2-(cyclopropanesulfonamido)thiazol-4-yl)-2-methyl-N-(4-(6-morpholinopyrazin-2-yl)phenyl)propanamide] | 5.00 to 6.00 |
| CN(C(=O)C(C)(C)c1csc(NS(=O)(=O)C2CC2)n1)c1ccc(-c2cncc(C#N)c2)cc1 [T309, N-(4-(5-cyanopyridin-3-yl)phenyl)-2-(2-(cyclopropanesulfonamido)thiazol-4-yl)-N,2-dimethylpropanamide] | 5.00 to 6.00 |
| CCC(CC)(C(=O)Nc1ccc(-c2cncc(C#N)c2)cc1)c1csc(NS(=O)(=O)C2CC2)n1 [T93, N-(4-(5-cyanopyridin-3-yl)phenyl)-2-(2-(cyclopropanesulfonamido)thiazol-4-yl)-2-ethylbutanamide] | > 7.00 |
| Cc1ncc(-c2ccc(NC(=O)C(C)(C)c3csc(NS(=O)(=O)C4CC4)n3)cc2)nc1C [T282, 2-(2-(cyclopropanesulfonamido)thiazol-4-yl)-N-(4-(5,6-dimethylpyrazin-2-yl)phenyl)-2-methylpropanamide] | 6.00 to 7.00 |
| CCC(C(=O)Nc1ccc(-c2cncc(C(F)(F)F)n2)cc1)c1csc(NS(=O)(=O)C2CC2)n1 (single isomer, unassigned) [T106, 2-(2-(cyclopropanesulfonamido)thiazol-4-yl)-N-(4-(6-(trifluoromethyl)pyrazin-2-yl)phenyl)butanamide] | > 7.00 |
| CCOc1cncc(-c2ccc(NC(=O)C(C)(C)c3csc(NS(=O)(=O)C(C)C)n3)cc2)n1 [T298, N-(4-(6-ethoxypyrazin-2-yl)phenyl)-2-methyl-2-(2-((1-methylethyl)sulfonamido)thiazol-4-yl)propanamide] | > 7.00 |
| CC(C)(C(=O)Nc1ccc(-c2cncc(F)c2)cc1)c1csc(NS(=O)(=O)C2CC2)n1 [T253, 2-(2-(cyclopropanesulfonamido)thiazol-4-yl)-N-(4-(5-fluoropyridin-3-yl)phenyl)-2-methylpropanamide] | > 7.00 |
| CCCOc1cncc(-c2ccc(NC(=O)C(CC)(CC)c3csc(NS(=O)(=O)C4CC4)n3)cc2)n1 [T123, 2-(2-(cyclopropanesulfonamido)thiazol-4-yl)-2-ethyl-N-(4-(6-propoxypyrazin-2-yl)phenyl)butanamide] | > 7.00 |
| CC(C)(C(=O)Nc1ccc(-c2cncc(Cl)c2)cn1)c1csc(NS(=O)(=O)C2CC2)n1 [T225, N-(5′-chloro-[3,3′-bipyridin]-6-yl)-2-(2-(cyclopropanesulfonamido)thiazol-4-yl)-2-methylpropanamide] | > 7.00 |
| COc1cncc(-c2ccc(NC(=O)Cc3csc(NS(=O)(=O)C4CCC4)n3)cc2)n1 [T61, 2-(2-(cyclobutanesulfonamido)thiazol-4-yl)-N-(4-(6-methoxypyrazin-2-yl)phenyl)acetamide] | > 7.00 |
| O=C(Cc1csc(NS(=O)(=O)C2CC2)n1)Nc1ccc(-c2ccccc2)nc1 [T66, 2-(2-(cyclopropanesulfonamido)thiazol-4-yl)-N-(6-phenylpyridin-3-yl)acetamide] | 6.00 to 7.00 |
| CC(C)(C(=O)Nc1ccc(-c2cncc(C#N)c2)cc1)c1csc(NS(=O)(=O)C2CC2)n1 [T47, N-(4-(5-cyanopyridin-3-yl)phenyl)-2-(2-(cyclopropanesulfonamido)thiazol-4-yl)-2-methylpropanamide] | > 7.00 |
| CC(=O)Nc1cncc(-c2ccc(NC(=O)C(C)(C)c3csc(NS(=O)(=O)C4CC4)n3)cc2)n1 [T281, N-(4-(6-acetamidopyrazin-2-yl)phenyl)-2-(2-(cyclopropanesulfonamido)thiazol-4-yl)-2-methylpropanamide] | 6.00 to 7.00 |
| CC(C)(C(=O)Nc1ncc(-c2cccnc2)cc1F)c1csc(NS(=O)(=O)C2CC2)n1 [T227, 2-(2-(cyclopropanesulfonamido)thiazol-4-yl)-N-(5-fluoro-[3,3′-bipyridin]-6-yl)-2-methylpropanamide] | 6.00 to 7.00 |
| CC(C)(C(=O)Nc1ccc(-c2cncc(C(F)(F)F)n2)cc1)c1csc(NS(=O)(=O)C(C)(C)C)n1 [T305, 2-(2-((1,1-dimethylethyl)sulfonamido)thiazol-4-yl)-2-methyl-N-(4-(6-(trifluoromethyl)pyrazin-2-yl)phenyl)propanamide] | 6.00 to 7.00 |
| CC(C)(C(=O)Nc1ccc(-c2cccnc2)nc1)c1csc(NS(=O)(=O)C2CC2)n1 [T116, N-([2,3′-bipyridin]-5-yl)-2-(2-(cyclopropanesulfonamido)thiazol-4-yl)-2-methylpropanamide] | 6.00 to 7.00 |
| COc1cncc(-c2ccc(NC(=O)C(C)(C)c3csc(NS(=O)(=O)C4CC4)n3)c(F)c2)c1 [T56, 2-(2-(cyclopropanesulfonamido)thiazol-4-yl)-N-(2-fluoro-4-(5-methoxypyridin-3-yl)phenyl)-2-methylpropanamide] | > 7.00 |
| COc1cc(-c2cncc(Cl)c2)ccc1NC(=O)C(C)(C)c1csc(NS(=O)(=O)C2CC2)n1 [T256, N-(4-(5-chloropyridin-3-yl)-2-methoxyphenyl)-2-(2-(cyclopropanesulfonamido)thiazol-4-yl)-2-methylpropanamide] | > 7.00 |
| CC(C)(C(=O)Nc1ncc(-c2cncc(C(F)(F)F)c2)cn1)c1csc(NS(=O)(=O)C2CC2)n1 [T294, 2-(2-(cyclopropanesulfonamido)thiazol-4-yl)-2-methyl-N-(5-(5-(trifluoromethyl)pyridin-3-yl)pyrimidin-2-yl)propanamide] | 6.00 to 7.00 |
| Cc1cc(-c2cncc(C#N)c2)cc(C)c1NC(=O)C(C)(C)c1csc(NS(=O)(=O)C2CC2)n1 [T320, N-(4-(5-cyanopyridin-3-yl)-2,6-dimethylphenyl)-2-(2-(cyclopropanesulfonamido)thiazol-4-yl)-2-methylpropanamide] | 6.00 to 7.00 |
